Patent EP4140481A1, “PROTEIN-OLIGOMER BINDING AGENTS AND THERAPEUTIC USES THEREOF” (Galyan Bio, Inc., priority 2021, dated 2023)
Values joined by “and” are separate entries in the source; they are usually repeats but may differ in a detail not shown here. Equal values may be shown once.

Key:
phospho-Tau (Ser396) = molecular target: T1, phospho-Tau (Ser396) (Mus musculus, UniProt P10637); assay: Phospho-Tau (Ser396) immunocytochemistry in STHdh 7/7 cells; format: cell-based; conditions: for Phospho-Tau (Ser396) reduction: heat shocked 3 hours, versus untreated STHdh 7/7
T1 construct: host or cells: ST HDH Q7/7 mouse striatal cell line
Experimental: Effect of Compound 4 on Phospho-Tau (Ser396) levels - ST HDH Q7/7 (CH00097, Coriell Institute) striatal derived cell line from a knock in transgenic mouse containing HTT loci with a humanized Exon 1 containing 7 polyglutamine repeats. Immunocytochemistry was conducted as described in Example 33 with the exception that instead of 3B5H10 antibody for staining mHTT, phospho-Tau (Ser396) polyclonal antibody (ThermoFisher, Catalog 44-752G) was used to stain phospho-Tau (Ser396).

Htt Exon-1 Q16 = Htt Exon-1 Q16 (Homo sapiens, UniProt P42858, DEL34-38); assay: Dynamic Light Scattering (DLS), induced aggregation; format: biochemical
Experimental: (§1) Proteins were ultracentrifuged with 50,000 rpm (rounds per minute) for one hour at 2 °C. The supernatant was used for DLS measurements. DLS measurements were conducted with Malvern Zetasizer Nano (Malvern Panalytical Ltd, United Kingdom).
(§2) Futher experiments were made with Htt Exon-1 Q16 and Q46. Table 28 Size Distribution (Volume and Number) of Q16 under various conditions

Htt Exon-1 Q46 = molecular target: T2, Htt Exon-1 Q46 (Homo sapiens, UniProt P42858, INS38QQQQQQQQQQQQQQQQQQQQQQQQQ); assay: as above; format: biochemical
T2 construct: Futher experiments were made with Htt Exon-1 Q16 and Q46
Experimental: as §1, §2

LC3 = assay: Autophagic flux (LC3 staining); format: cell-based, mouse
Experimental: Staining - Cells were permeabilized with 0.3% Triton X-100 in 4 °C PBS (pH 7.4 from ThermoFisher) for 10 minutes. Then the cells were washed two times with 4 °C PBS. Subsequently, cells are blocked with 3% NGS (normal goat serum from Thermo Fisher) in 4 ° C PBS for 1 hour. Cells were incubated with primary antibodies in blocking buffer (PBS, 3% NGS, 0.02% NaN3) over night at 4 °C. Primary antibodies were mouse antipolyglutamine monoclonal antibody 3B5H10 (Sigma-Aldrich) at 1:250 dilution and Guinea Pig anti-MAP2 polyclonal antibody (Synaptic Systems) at 1:500 dilution. […]
Fluorescence Imaging - Imaging sessions were performed on a confocal microscope system (Carl Zeiss Microscopy) equipped with a dual spinning disk unit (Yokogawa). […] The fluorescence images obtained of the immunofluorescence labelled tissue sections were quantified with the help of the "Image Processing and Analysis in Java" or short ImageJ software distributed under the GNU General Public License by the NIH (Rueden, C.T. et al., BMC Bioinformatics. 2017 Nov 29;18(1):529), i.e. the edition used was the Fiji distribution (Schindelin, J. et al., Nature methods. 2012 Jun 28;9(7):676-82). […]
Autophagic flux was calculated as the area stained with LC3 antibody per cell in STHdh 111/111 with autophagy inhibitor NH4CI minus area stained with LC3 antibody per cell in STHdh 111/111 without the autophagy inhibitor NH4CI.

[1] = by number, equimolar Compound 4
[2] = by volume, equimolar Compound 4
[3] = by intensity, equimolar Compound 4

T1 sequence (P10637 whole entry): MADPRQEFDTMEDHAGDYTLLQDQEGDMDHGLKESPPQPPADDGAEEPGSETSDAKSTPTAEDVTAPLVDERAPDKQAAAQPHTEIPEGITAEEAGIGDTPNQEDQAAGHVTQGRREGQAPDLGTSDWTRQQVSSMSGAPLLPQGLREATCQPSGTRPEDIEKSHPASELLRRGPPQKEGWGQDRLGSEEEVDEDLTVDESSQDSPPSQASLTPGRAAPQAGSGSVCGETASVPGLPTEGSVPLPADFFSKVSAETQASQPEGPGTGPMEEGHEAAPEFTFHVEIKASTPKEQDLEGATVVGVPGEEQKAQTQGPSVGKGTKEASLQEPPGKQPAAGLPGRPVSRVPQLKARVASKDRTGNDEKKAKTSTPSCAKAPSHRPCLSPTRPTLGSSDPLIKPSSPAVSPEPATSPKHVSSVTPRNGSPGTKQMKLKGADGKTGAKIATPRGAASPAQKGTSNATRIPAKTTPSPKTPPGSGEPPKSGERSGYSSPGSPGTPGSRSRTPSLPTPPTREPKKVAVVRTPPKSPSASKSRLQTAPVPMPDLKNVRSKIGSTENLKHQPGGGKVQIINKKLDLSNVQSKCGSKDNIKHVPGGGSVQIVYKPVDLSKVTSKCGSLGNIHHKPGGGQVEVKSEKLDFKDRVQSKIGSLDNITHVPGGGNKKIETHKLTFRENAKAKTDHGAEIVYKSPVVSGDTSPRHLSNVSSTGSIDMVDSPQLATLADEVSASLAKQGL
T2 sequence (P42858 with tags, fused parts or gaps with the stated changes): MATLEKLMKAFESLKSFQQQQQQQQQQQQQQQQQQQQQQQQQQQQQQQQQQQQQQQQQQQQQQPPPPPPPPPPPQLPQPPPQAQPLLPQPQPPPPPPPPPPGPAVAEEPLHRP
Htt Exon-1 Q16, sequence (P42858 with tags, fused parts or gaps DEL34-38): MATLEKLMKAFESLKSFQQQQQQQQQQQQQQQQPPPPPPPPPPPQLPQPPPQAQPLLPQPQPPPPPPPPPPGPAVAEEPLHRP

CCc1c(C)[nH]c2ccc(C(=O)NCCN(CC)CC)cc12 [Compound 4, N-(2-(diethylamino)ethyl)-3-ethyl-2-methyl-1H-indole-5-carboxamide]
Phospho-Tau (Ser396) reduction with autophagy inhibitor (phospho-Tau (Ser396); 5 µM, 10 mM ammonium chloride): could not reduce | Phospho-Tau (Ser396) reduction (phospho-Tau (Ser396); 5 µM): 20% | inhibition at 10 µM (phospho-Tau (Ser396); 10 µM, 10 mM ammonium chloride, read-out: Phospho-Tau (Ser396) reduction with autophagy inhibitor): 15.2% | Phospho-Tau (Ser396) reduction (phospho-Tau (Ser396); 10 µM): 26.3% | % Number, Peak 1 (Htt Exon-1 Q16; [1]): 100% | Size, Peak 1 (Htt Exon-1 Q16; [1]): 6.0 nm and 6.063 nm | % Volume, Peak 1 (Htt Exon-1 Q16; [2]): 0.2% | % Volume, Peak 2 (Htt Exon-1 Q16; [2]): 99.8% | Size, Peak 1 (Htt Exon-1 Q16; [2]): 93.12 nm | Size, Peak 2 (Htt Exon-1 Q16; [2]): 6.949 nm | assembly state of Q16 (Htt Exon-1 Q16; exposed to Compound 4): mainly monomeric | % Intensity, Peak 1 (Htt Exon-1 Q46; [3]): 83.1% | % Intensity, Peak 2 (Htt Exon-1 Q46; [3]): 12.9% | % Intensity, Peak 3 (Htt Exon-1 Q46; [3]): 4,1% | Size, Peak 1 (Htt Exon-1 Q46; [3]): 178.7 nm | Size, Peak 2 (Htt Exon-1 Q46; [3]): 9.275 nm | Size, Peak 3 (Htt Exon-1 Q46; [3]): 3917 nm | assembly state of Q46 (Htt Exon-1 Q46; exposed to Compound 4): assembles as mostly aggregates and larger aggregates

Cc1[nH]c2ccc(C(=O)NCCN(C(C)C)C(C)C)cc2c1C [Compound 22]
autophagic flux (LC3; STHdh 111/111, LC3 area with NH4Cl minus without NH4Cl): positive autophagic flux | LC3 stained area (LC3; STHdh 111/111 neurons versus untreated, p < 0.001): decreased
